{
  "source": "patent US10717781B2",
  "about": "“Neuroinvasion inhibitor” (National Cancer Center, priority 2008, dated 2020)",
  "key": {"[1]": {"tested_on": "human pancreatic cancer cell lines", "assay": "chemotaxis assay", "assay_type": "cell-based", "conditions": "hrIL6 0, 1, 10, 100 ng/ml, 24 hours (FIG. 2C)", "description": "(§1) Capan-1 and BxPC-3, which are human pancreatic cancer cell lines, were purchased from the American Type Culture Collection (ATCC). According to the manual recommended by ATCC, the cells were cultured and passaged using an incubator capable of maintaining a temperature of 37° C. under 5% CO2.\nCell culture inserts (BD Falcon) having 8-μm pores in the bottom surface were inserted into 24 wells. The cell culture inserts and wells were used as upper and lower chambers, respectively. Human recombinant IL-6 (hrIL6) vehicles were prepared at 0, 1, 10, and 100 ng/ml using hrIL6 (R&D systems) and serum-free culture medium. 600 μl of the hrIL6 vehicles was added to the lower chambers. 100 μl of a cell suspension (2×10^6 cells/ml) was added to the upper chambers. After 24 hours of incubation, cells that passed through the pores were counted. This assay was carried out twelve times for each group. The cell count was divided by the average number of cells that passed through the pores at 0 ng/ml hrIL6. The resulting normalized values were recorded.\n(§2) Using human recombinant IL-6, the effects of IL-6 on growth activity, chemotactic activity, and migratory activity of the human pancreatic cancer cell lines were assessed by monitoring the cell count over time (FIGS. 2A and 2B), by chemotaxis assay (FIG. 2C), and by wound healing assay (FIG. 2D)."}, "[2]": {"tested_on": "human pancreatic cancer cell lines", "assay": "wound healing assay (migratory activity)", "assay_type": "cell-based", "conditions": "hrIL6 0, 1, 10, 100 ng/ml, 24 hours (FIG. 2D)", "description": "as §1\n1 ml of a cell suspension (3×10^5 cells/ml) was added to each of 24 wells, and incubated for 24 hours. Then, the medium was replaced with serum-free medium. After 24 hours of incubation, a strip-shaped cell-free area was produced by scraping the central area of the well with a glass rod. After measuring the width of the strip, the medium was replaced with an hrIL6 vehicle at 0, 1, 10, or 100 ng/ml. After 24 hours of incubation, changes in the width of the cell-free area were determined. This assay was carried out twelve times for each group. The determined values were divided by the average width change at 0 ng/ml hrIL6. The resulting normalized values were recorded.\nas §2"}, "[3]": {"tested_on": "human pancreatic cancer cell lines", "assay": "cell growth activity by monitoring the cell count over time", "assay_type": "cell-based", "conditions": "cell count over time (FIGS. 2A and 2B)", "description": "as §1\nCells were harvested from dishes, and viable cells were counted using trypan blue and a hemocytometer.\nas §2"}, "[4]": {"tested_on": "human pancreatic cancer Capan-1 cell line", "assay": "Western blotting of intracellular signaling (pSTAT3, pErk1/2, pAkt)", "assay_type": "cell-based", "description": "Western blotting was carried out using the following primary antibodies: anti-phosphorylated STAT3 antibody (Santa Cruz), anti-STAT3 antibody (Santa Cruz), anti-phosphorylated Erk1/2 antibody (Cell Signaling), anti-Erk1/2 antibody (Cell Signaling), anti-phosphorylated Akt antibody (Cell Signaling), anti-Akt antibody (Cell Signaling), and anti-actin antibody (Santa Cruz). Fluorescent immunostaining was carried out using the following primary antibodies: anti-S100 antibody (DAKO) and anti-mouse IL-6 antibody (Santa Cruz). Nuclear staining was performed using DRAQ5 (AXXORA). Immunostaining was performed using an anti-phosphorylated STAT3 antibody (Santa Cruz).\nCell lysates were prepared using a lysate buffer (20 mM Hepes-NaOH (pH 7.0), 0.5% NP-40, 15% Glycerol, 300 mM NaCl, 1 mM EDTA, 10 mM NaF). The protein concentration was determined using a BCA Protein Assay Kit (PIERCE). Then, cell lysates containing […] of protein were electrophoresed in 7.5% or 12% acrylamide gels. The proteins were transferred onto a polyvinylidene difluoride membrane (Millipore). An antibody was added to the membrane, and the protein expression was visualized using Enhanced Chemiluminescence Reagent (Amersham Biosciences).\nUsing human recombinant IL-6 (rhIL6), the effect of IL-6 on intracellular signaling of the human pancreatic cancer Capan-1 cell line was assessed by Western blotting for phosphorylated STAT3 (pSTAT3) (FIG. 3A), phosphorylated Erk1/2 (pErk1/2) (FIG. 3B), and phosphorylated Akt (pAkt) (FIG. 3C). […] In contrast, IL-6 had no effect on the expression of phosphorylated Akt."}, "[5]": {"tested_on": "neural invasion of human pancreatic cancer cells in mouse sciatic nerve", "assay": "administration of inhibitors to neural invasion model mice", "assay_type": "in vivo", "description": "Six-week-old male mice with severe combined immune deficiency (SCID) were used. The mice were anesthetized by administering barbital at 50 mg/kg into their peritoneal cavities. After exposing the left sciatic nerves, 2.5 μl of a suspension of cancer cells (1.0×10^4 cells/μl) was injected directly into the sciatic nerves using a microsyringe and 30-gauge needle. Upon assessment, the sciatic nerves into which cancer cells were injected were isolated. When tissue samples were prepared, the nerves were allowed to stand in 4% paraformaldehyde at 4° C. for one whole day and night to fix them. The fixed sciatic nerves were sliced into 3-μm sections, and then immunostained or hematoxylin/eosin-stained to measure the distance of neural invasion. Using an objective micrometer (Sankei Co.), the longitudinal length of the whole tumor was measured in the longitudinally sliced thin sections of the nerves to determine the distance of neural invasion. Tissue mRNA was extracted from tissue samples prepared by crushing with a Multi-Beads Shocker (Yasui Kikai Co.) immediately after harvesting the tissues.\nThe distance of neural invasion is an important factor in the mode of invasion of pancreatic cancer. […]\nThe analysis software used was STATVIEW 5.0. The difference between average values was evaluated by two-sided Student-t test. […]"}, "[6]": {"tested_on": "pancreatic cancer", "conditions": "pancreatic cancer patients, foreign phase III clinical trial data, cited from earlier work"}},
  "note": "Where a name gives a salt, the structure may show the parent alone.",
  "data": [
    {"molecule": "IL-6: Human recombinant IL-6 (R&D systems), cytokine added to pancreatic cancer cell lines", "values": [
      {"measurement": "effect on chemotactic activity", "setting": "[1]", "result": "enhances"},
      {"measurement": "effect on migratory activity", "setting": "[2]", "result": "enhances"},
      {"measurement": "effect on cell growth", "setting": "[3]", "result": "no effect"},
      {"measurement": "expression of phosphorylated Akt", "setting": "[4]; Capan-1 (FIG. 3C)", "result": "no effect"},
      {"measurement": "intracellular expression level of phosphorylated STAT3 protein", "setting": "[4]; Capan-1, 15 minutes after addition of rhIL6 (FIG. 3A)", "result": "clearly elevated"},
      {"measurement": "intracellular expression level of phosphorylated Erk1/2 proteins", "setting": "[4]; Capan-1, one hour after addition of rhIL6 (FIG. 3B)", "result": "clearly elevated"}
    ]},
    {"molecule": "N#C/C(=C/c1ccc(O)c(O)c1)C(=O)NCc1ccccc1", "note": "[AG490]", "values": [
      {"measurement": "neural invasion (invasion distance)", "setting": "[5]; 0.5 mg intraperitoneally every day for 12 days from two days after injection of cancer cells, assessed at two weeks, vs 1% DMSO (FIG. 9A)", "result": "suppression of neural invasion"}
    ]},
    {"molecule": "Nc1ccn([C@@H]2O[C@H](CO)[C@@H](O)C2(F)F)c(=O)n1", "note": "[gemcitabine hydrochloride]", "values": [
      {"measurement": "efficacy rate of palliative effects", "setting": "[6]; first drug of choice", "result": 23.8, "unit": "%"},
      {"measurement": "median survival time", "setting": "[6]", "result": 5.7, "unit": "months"},
      {"measurement": "one-year survival rate", "setting": "[6]", "result": 18, "unit": "%"}
    ]},
    {"molecule": "anti-human IL-6 receptor antibody: anti-IL-6 receptor antibody (tocilizumab; Chugai Pharmaceutical Co.), which inhibits the human IL-6 receptor; humanized PM-1 antibody", "values": [
      {"measurement": "neural invasion (invasion distance)", "setting": "[5]; 5 μg/g twice a week for two weeks from one week after injection of cancer cells, assessed at three weeks, vs human IgG (FIG. 9B)", "result": "suppression of neural invasion"}
    ]}
  ]
}
